This assay has as its system R. oryzae UCP1295. Nature of the assay: Screening of the Pandemic Response Box library at 5 µM. In kind it is cell-based, Rhizopus oryzae. The note with it: 48 h, Table S1, mean of the four values. How it is done: Rhizopus oryzae UCP is the most prevalent Mucorales species in human infections and was used as a reference strain to screen the Pandemic Response Box® library. Screening was performed according to Rollin-Pinheiro and colleagues. Each compound was diluted in RPMI 1640 medium (Sigma Chemical Co., St. Louis, MO, USA), supplemented with 2% glucose and buffered with 3-(N-morpholino) propanesulfonic acid (MOPS) (Sigma Chemical Co., St. Louis, MO, USA) (0.165 mol/L, pH 7.2, from here on referred to as ‘supplemented RPMI’) to reach 5 μM in 96-well microtiter plates. Posaconazole (5 μM) and supplemented RPMI containing 1% DMSO were used as controls (both from Sigma Chemical Co., St. Louis, MO, USA). Conidia (2 × 10^5/mL) were added and incubated for 48 h at 37 °C in a 5% CO2 atmosphere. […] An inhibition of at least 60% was defined as the cut-off to select the promising drugs with antifungal activity against the Rhizopus species.
On to `Cc1cc(C2CCCCC2)n(O)c(=O)c1` [MMV002731], for which the “% of growth inhibition, Mean” value is -13.0%.

As for `C[C@@H]1O[C@@H]1P(=O)(O)O` [MMV002354], the “% of growth inhibition, Mean” value was -22.5%.

In the case of `O=C(Nc1nnc(-c2ccc(Cl)cc2)o1)c1nc2ccccc2s1` [MMV102833], the “% of growth inhibition, Mean” value came out at 1.7%.

`CC(C)Nc1ncnc2c1cnn2-c1ccc(Cl)cc1` [MMV108465]: the “% of growth inhibition, Mean” value was -32.3%.

As for `NC(=O)c1cnc2ccc(S(=O)(=O)c3ccccc3)cc2c1Nc1ccc(O)cc1` [MMV1580848], the “% of growth inhibition, Mean” value was -15.6%.

As to `c1ccc(Cn2c(-c3ccccn3)nc3ccccc32)cc1` [MMV1578886], the “% of growth inhibition, Mean” value was -11.3%.

In the case of `C=C(C)[C@@H]1CC[C@]2(C(=O)O)CC[C@]3(C)[C@H](CC[C@@H]4[C@@]5(C)CC[C@H](O)C(C)(C)[C@@H]5CC[C@]43C)[C@@H]12` [MMV638198], the “% of growth inhibition, Mean” value is recorded as 43.5%.

With `O=C(Cc1ccccc1F)Nc1nc2ccccc2[nH]1` [MMV1578576], the “% of growth inhibition, Mean” value is on record as -39.7%.

Consider `Cc1cc(C)n2nc(C(=O)NS(=O)(=O)c3c(C)cccc3OC(F)(F)F)nc2n1` [MMV1782402], for which the “% of growth inhibition, Mean” value is recorded as -19.8%.

Take `O=C(O)CCNC(=O)c1ccccc1` [MMV002224]: the “% of growth inhibition, Mean” value is on record as -6.2%.

As for `O=C(Nc1nnc(-c2ccc(Cl)cc2)o1)c1ccc(F)cc1` [MMV1782140], the “% of growth inhibition, Mean” value is reported as -4.1%.

Take `CC(C)C(=O)N[C@H]1[C@H]([C@H](O)[C@H](O)CO)OC(C(=O)O)=C[C@@H]1N=[N+]=[N-]` [MMV1782111]: the “% of growth inhibition, Mean” value is -12.9%.

Take `CN(C)CCCNC(=O)c1ccc(-c2cc(O)c3ncccc3c2)cc1` [MMV1580488]: the “% of growth inhibition, Mean” value was found to be 37.5%.

For `NCC(=O)Nc1ccc(-n2nc(C(F)(F)F)cc2-c2ccc3c(ccc4ccccc43)c2)cc1` [MMV1578560], the “% of growth inhibition, Mean” value is listed as -14.6%.

For the molecule `COc1ccc(COc2cc3oc(=O)c4cc(C(C)O)ccc4c3cc2OC)cc1` (stereo not drawn) [MMV1580799], the “% of growth inhibition, Mean” value is -1.6%.

With `O=C(CC1Sc2ncnn2C1=O)Nc1ccc(Br)cc1` (stereo not drawn) [MMV214956], the “% of growth inhibition, Mean” value was -17.9%.

Take `O=C(CP(=O)(O)O)NCCc1cccc(Oc2ccccc2)c1` [MMV1579787]: the “% of growth inhibition, Mean” value is recorded as -30.1%.

Turning to `C/C(=N\NC(=O)C1CC1c1ccccc1)c1ccc(NC(=O)c2ccco2)cc1` (stereo not drawn) [MMV1580487], the “% of growth inhibition, Mean” value is listed as 0.3%.

For `O=C(NC1CCCc2c1[nH]c1ccc(Cl)cc21)c1ccccn1` (stereo not drawn) [MMV690621], the “% of growth inhibition, Mean” value is on record as -11.4%.

As to `O=C(NC12CC3CC(CC(C3)C1)C2)c1cc2ccccc2[nH]1` [MMV1578577], the “% of growth inhibition, Mean” value was -4.8%.

As to `Cc1ncc([N+](=O)[O-])n1CC(O)CN1CCOCC1` (stereo not drawn) [MMV1613562], the “% of growth inhibition, Mean” value is recorded as -0.4%.

With `O=C(NC(=O)N1CCCc2ccccc21)c1cccc(Cl)c1` [MMV1782351], the “% of growth inhibition, Mean” value is reported as -17.9%.

In the case of `Cc1ccc(C)c(OCCCCCCN2C[C@H](O)[C@@H](O)[C@H](O)[C@H]2CO)c1` [MMV1634401], the “% of growth inhibition, Mean” value was 10.8%.

Regarding `NC[C@H]1O[C@H](O[C@H]2[C@H](O)[C@@H](O[C@H]3O[C@H](CO)[C@@H](O)[C@H](N)[C@H]3O)[C@H](N)C[C@@H]2N)[C@H](N)C[C@@H]1O` [MMV002459], the “% of growth inhibition, Mean” value is -14.1%.

Regarding `Cl.NC1(C(=O)O)CCP(=O)(O)CC1` (stereo not drawn) [MMV1593538], the “% of growth inhibition, Mean” value is recorded as 0.4%.

Regarding `O=C(Nc1ccc(Cl)c(C(F)(F)F)c1)C(CCCl)C(=O)Nc1ccc(Cl)c(C(F)(F)F)c1` [MMV1580840], the “% of growth inhibition, Mean” value is -7.5%.

Regarding `O=c1ccc2ncc(=O)n3c2n1CC3CN1CCC(NCc2cc3c(cn2)OCCC3)CC1` (stereo not drawn) [MMV1578568], the “% of growth inhibition, Mean” value was -14.8%.

Turning to `CC(C)(C)NC(=O)[C@@H]1C[C@@H]2CCCC[C@@H]2CN1C[C@@H](O)[C@H](Cc1ccccc1)NC(=O)[C@H](CC(N)=O)NC(=O)c1ccc2ccccc2n1` [MMV637879], the “% of growth inhibition, Mean” value was determined as 25.0%.

In the case of `Cc1nc(N(C)C(=O)Cc2ccc(-c3ccccn3)cc2)sc1S(N)(=O)=O` [MMV1580486], the “% of growth inhibition, Mean” value is listed as -4.4%.

As for `O=S(=O)(Nc1ccccc1)c1ccc(NC(=S)Nc2ccccc2)cc1` [MMV1578562], the “% of growth inhibition, Mean” value was -19.4%.

Regarding `CCCCc1ccc(S(=O)(=O)Nc2cc(C)on2)cc1` [MMV1782108], the “% of growth inhibition, Mean” value is recorded as -13.7%.

As for `O=C(c1ccc(F)cc1)N1CCN2C(=O)c3ccccc3C12c1ccccc1` (stereo not drawn) [MMV1165877], the “% of growth inhibition, Mean” value is given as -2.4%.

With `Clc1cccc(-c2nnc(-c3ccccc3)o2)c1` [MMV141011], the “% of growth inhibition, Mean” value is reported as -16.6%.

For the molecule `COc1cc(C2C3=C(CC(C)(C)CC3=O)Nc3ccccc3N2C(C)=O)ccc1OCc1ccccc1` (stereo not drawn) [MMV1634557], the “% of growth inhibition, Mean” value was -15.9%.

In the case of `C[C@H]1CC[C@]2(NC1)O[C@H]1C[C@H]3[C@@H]4CC[C@H]5C[C@@H](O)CC[C@]5(C)[C@H]4CC[C@]3(C)[C@H]1[C@@H]2C.Cl` [MMV003069], the “% of growth inhibition, Mean” value is recorded as -12.1%.

In the case of `Cl.Nc1nc(-c2ccccc2)nc2c1ncn2[C@@H]1O[C@H](COS(=O)(=O)NC(=O)c2ccccc2O)[C@@H](O)[C@H]1O` [MMV1582488], the “% of growth inhibition, Mean” value is -7.5%.

As to `CCN(CC)S(=O)(=O)c1ccc(Cl)c(C(=O)Nc2sc3c(c2C#N)CCCC3)c1` [MMV1634384], the “% of growth inhibition, Mean” value was -5.0%.

In the case of `O=[N+]([O-])c1ccc2c(CCc3c[nH]c4ccccc34)c[nH]c2c1` [MMV1593539], the “% of growth inhibition, Mean” value was -2.0%.

Consider `O=C(c1ccccc1)N1CCN(c2ccccc2NC(=O)C(Cl)(Cl)Cl)CC1` [MMV001014], for which the “% of growth inhibition, Mean” value is recorded as -10.6%.

Turning to `NC(N)=NCCCCC(=O)Nc1cc(C(F)(F)F)cc(NC(=O)c2cc(C(=O)Nc3cc(C(F)(F)F)cc(NC(=O)CCCCN=C(N)N)c3O[C@@H]3CCNC3)ncn2)c1O[C@@H]1CCNC1` [MMV1634402], the “% of growth inhibition, Mean” value is -4.8%.

As for `CCNC(=O)Nc1cc(-c2ccccc2)c(-c2cncc(C(=O)O)c2)cn1` [MMV1593534], the “% of growth inhibition, Mean” value is recorded as -20.0%.

With `CN1CCN(c2ccc3[nH]c(-c4ccc5[nH]c(-c6ccc(O)cc6)nc5c4)nc3c2)CC1` [MMV020752], the “% of growth inhibition, Mean” value was -8.9%.

`O=C1NC(=S)N/C1=C\c1cc(Br)cc(Br)c1O` [MMV1578569]: the “% of growth inhibition, Mean” value is on record as -14.5%.

`CN(C(=O)C1(c2ccc(Cl)cc2)CCC1)c1ccccc1` [MMV1581030]: the “% of growth inhibition, Mean” value is recorded as -7.5%.

In the case of `COc1ccc(NS(=O)(=O)c2ccc(Cl)s2)cn1` [MMV1580499], the “% of growth inhibition, Mean” value is listed as -3.0%.

As to `CC(=O)N1c2ccccc2NC2=C(C(=O)CC(C)(C)C2)C1c1ccc(OCc2ccccc2)cc1` (stereo not drawn) [MMV1580503], the “% of growth inhibition, Mean” value is on record as -1.0%.

In the case of `Nc1nc(N)c2c(Sc3ccccc3)cccc2n1` [MMV021759], the “% of growth inhibition, Mean” value is listed as -3.3%.

For `N=c1n(CCN2CCCCC2)c2ccccc2n1CC(O)COc1ccc(Cl)cc1Cl` (stereo not drawn) [MMV394033], the “% of growth inhibition, Mean” value is given as -0.8%.

As to `CC(C)(C)c1ccc(C(Cn2cccc(C(F)(F)F)c2=O)NC2Cc3ccccc3C2)cc1` (stereo not drawn) [MMV1634393], the “% of growth inhibition, Mean” value is listed as -0.4%.

`O=[N+]([O-])c1cn2c(n1)OC[C@@H](OCc1ccc(OC(F)(F)F)cc1)C2` [MMV688755]: the “% of growth inhibition, Mean” value is given as 1.3%.

With `Nc1nnc(-c2ccc(Cl)cc2)s1` [MMV046261], the “% of growth inhibition, Mean” value was -8.7%.

For the molecule `O=P(O)(O)C(CCCc1cccc(Oc2ccccc2)c1)S(=O)(=O)O` (stereo not drawn) [MMV1782215], the “% of growth inhibition, Mean” value is -6.1%.

Take `COc1ccc2c(c1OC)C(=O)OC2C1c2c(cc3c(c2OC)OCO3)CCN1C` (stereo not drawn) [MMV002780]: the “% of growth inhibition, Mean” value is on record as -7.9%.

With `Cc1cc(CCCOc2c(C)cc(-c3noc(C(F)(F)F)n3)cc2C)on1` [MMV690467], the “% of growth inhibition, Mean” value is -3.4%.

On to `COc1ccc(CNC(=O)C(NS(=O)(=O)c2ccc3nc(C)sc3c2)C(C)C)cc1` (stereo not drawn) [MMV303733], for which the “% of growth inhibition, Mean” value was -8.6%.

In the case of `CC(C)Oc1ccc(-n2cnc3cc(/C=C\c4ccc(C(C)(C)O)cc4)ccc32)cc1` [MMV1782350], the “% of growth inhibition, Mean” value came to 26.5%.

Consider `CC(C)c1ccc(COc2cccc(-c3cc([S+](C)[O-])c(C#N)c(=O)[nH]3)c2)cc1` (stereo not drawn) [MMV1582497], for which the “% of growth inhibition, Mean” value is -17.1%.

For the molecule `N#Cc1c(F)c(Cl)c(NCc2ccccc2)c(C#N)c1F` [MMV1582496], the “% of growth inhibition, Mean” value is recorded as -1.3%.

As to `NC(=O)c1c(N)sc2c1CCCCC2` [MMV056052], the “% of growth inhibition, Mean” value was -8.7%.

With `CCCCc1ccc(-c2cc(C(=O)O)cc(-c3ccc(Cl)cc3)n2)cc1` [MMV1580852], the “% of growth inhibition, Mean” value is given as -12.9%.

Regarding `O=C(Nc1ccc(-c2ccccc2)cc1)C1=C(O)C(Cc2ccccc2)OC1=O` (stereo not drawn) [MMV1593531], the “% of growth inhibition, Mean” value is on record as -29.2%.

Consider `Cc1cc(C)n(O)c(=O)c1` [MMV1782389], for which the “% of growth inhibition, Mean” value was -20.7%.

As for `CCCCCCCCC(CP(=O)(O)C(C)N)C(=O)O` (stereo not drawn) [MMV1582487], the “% of growth inhibition, Mean” value is -11.5%.

As for `Cc1ccc(NC(=O)c2cc(Cl)ccc2O)cc1` [MMV1578897], the “% of growth inhibition, Mean” value is -1.2%.

Consider `N#Cc1cc([N+](=O)[O-])ccc1Oc1ccccc1Cl` [MMV1580800], for which the “% of growth inhibition, Mean” value was -8.1%.

With `COc1cc2c(O)c3c(c(-c4ccc5c(c4)OCO5)c2cc1OC)C(=O)OC3` [MMV102270], the “% of growth inhibition, Mean” value is -33.2%.

Source of the values: PMC9959553, “Promising Antifungal Molecules against Mucormycosis Agents Identified from Pandemic Response Box®: In Vitro and In Silico Analyses” (Journal of Fungi, 2023).
